In PubChem BioAssay AID248 (DTP/NCI, 2004):
Values joined by “and” are separate entries in the source; they are usually repeats but may differ in a detail not shown here. Identical values can stand only once. Toxic doses and inconclusive results are not listed. Cut-off read from the data, not from the text of the source: active = T/C of 150% or more; inactive = T/C below 125%.

Test system: L1210 leukemia ip in BDF1 mice, survival T/C
Test: NCI In Vivo Anticancer Drug Screen. Data for tumor model L1210 Leukemia (intraperitoneal) in B6D2F1 (BDF1) mice
Conditions: endpoint: mean survival time, higher = longer survival
In short: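 Tumor was transplanted into mice, which were then dosed with test compound or vehicle alone. Survival was recorded for each group, and the treated figure was expressed relative to the control figure.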

[1] = dose: 100.0 mg/kg/injection, schedule: Q01DX009 (ip), vehicle: Klucel (hydroxypropylcellulose) (HPC)
[2] = dose: 100.0 mg/kg/injection, schedule: Q04DX003 (ip), vehicle: Klucel (hydroxypropylcellulose) (HPC)
[3] = dose: 200.0 mg/kg/injection, schedule: Q01DX009 (ip), vehicle: Klucel (hydroxypropylcellulose) (HPC)
[4] = dose: 200.0 mg/kg/injection, schedule: Q04DX003 (ip), vehicle: Klucel (hydroxypropylcellulose) (HPC)
[5] = dose: 400.0 mg/kg/injection, schedule: Q01DX009 (ip), vehicle: Klucel (hydroxypropylcellulose) (HPC)
[6] = dose: 400.0 mg/kg/injection, schedule: Q04DX003 (ip), vehicle: Klucel (hydroxypropylcellulose) (HPC)
[7] = dose: 100.0 mg/kg/injection, schedule: Q04DX003 (ip), vehicle: saline with Tween-80
[8] = dose: 200.0 mg/kg/injection, schedule: Q04DX003 (ip), vehicle: saline with Tween-80
[9] = dose: 400.0 mg/kg/injection, schedule: Q04DX003 (ip), vehicle: saline with Tween-80
[10] = dose: 100.0 mg/kg/injection, schedule: Q01DX001 (ip), vehicle: saline

Measured: T/C

O=C1CC(c2ccc(O)cc2)CC(=O)C1C(C1CC=CCC1)N(CCCl)CCCl (centres undefined)
inactive: [1] 105 % of control and 104 % of control | [2] 103 % of control | [3] 105 % of control and 100 % of control | [4] 106 % of control and 104 % of control | [5] 110 % of control and 100 % of control | [6] 110 % of control and 101 % of control

N#Cc1nccc2ccc(OCc3ccc(Br)cc3)cc12
inactive: [7] 88 % of control | [8] 86 % of control | [9] 89 % of control

C#CC1(O)CCCCC1
inactive: [1] 108 % of control | [2] 94 % of control | [3] 97 % of control | [4] 100 % of control | [5] 97 % of control | [6] 96 % of control

CCN(CC)CC[N-]CCN(CC)CC.[Cl][Pt]
inactive: [10] 97 % of control

CC1CCC2C(C)C3C(CC4C5CC=C6CC(OC7OC(CO)C(O)C(OC8OC(CO)C(O)C(O)C8O)C7OC7OC(C)C(O)C(O)C7O)CCC6(C)C5CCC43C)N2C1 (centres undefined)
inactive: dose: 12.5 mg/kg/injection, schedule: Q01DX015 (sc), vehicle: steriod suspending solution 101 % of control | dose: 25.0 mg/kg/injection, schedule: Q01DX015 (sc), vehicle: steriod suspending solution 98 % of control | dose: 50.0 mg/kg/injection, schedule: Q01DX015 (sc), vehicle: steriod suspending solution 95 % of control | dose: 100.0 mg/kg/injection, schedule: Q01DX001 (sc), vehicle: steriod suspending solution 100 % of control | dose: 100.0 mg/kg/injection, schedule: Q01DX015 (sc), vehicle: steriod suspending solution 101 % of control | dose: 200.0 mg/kg/injection, schedule: Q01DX001 (sc), vehicle: steriod suspending solution 105 % of control | dose: 400.0 mg/kg/injection, schedule: Q01DX001 (sc), vehicle: steriod suspending solution 103 % of control

Cc1ccc(N2P(N(C)C)N(c3ccc(C)cc3)P2(=O)N(C)C)cc1 (centres undefined)
inactive: dose: 100.0 mg/kg/injection, schedule: Q04DX002 (ip), vehicle: Klucel (hydroxypropylcellulose) (HPC) 111 % of control | dose: 200.0 mg/kg/injection, schedule: Q04DX002 (ip), vehicle: Klucel (hydroxypropylcellulose) (HPC) 101 % of control | dose: 400.0 mg/kg/injection, schedule: Q04DX002 (ip), vehicle: Klucel (hydroxypropylcellulose) (HPC) 101 % of control

COC1C(NC(=O)N(CCCl)N=O)C(OC(C)=O)OC(COC(C)=O)C1OC(C)=O (centres undefined)
active: dose: 2.6 mg/kg/injection, schedule: Q01DX001 (ip), vehicle: saline with Tween-80 181 % of control | dose: 4.0 mg/kg/injection, schedule: Q01DX001 (ip), vehicle: saline with Tween-80 154 % of control | dose: 6.0 mg/kg/injection, schedule: Q01DX001 (ip), vehicle: saline with Tween-80 259 % of control [middle of 4 runs] | dose: 9.0 mg/kg/injection, schedule: Q01DX001 (ip), vehicle: saline with Tween-80 283 % of control and 162 % of control | dose: 13.0 mg/kg/injection, schedule: Q01DX001 (ip), vehicle: saline with Tween-80 333 % of control and 232 % of control | dose: 20.0 mg/kg/injection, schedule: Q01DX001 (ip), vehicle: saline with Tween-80 155 % of control and 154 % of control
inactive: dose: 1.8 mg/kg/injection, schedule: Q01DX001 (ip), vehicle: saline with Tween-80 118 % of control | dose: 30.0 mg/kg/injection, schedule: Q01DX001 (ip), vehicle: saline with Tween-80 86 % of control

O=C(NC(=O)C(Cl)Cl)OC1c2ccccc2-c2ccccc21
inactive: dose: 50.0 mg/kg/injection, schedule: Q01DX001 (ip), vehicle: Klucel (hydroxypropylcellulose) (HPC) 95 % of control | dose: 100.0 mg/kg/injection, schedule: Q01DX001 (ip), vehicle: Klucel (hydroxypropylcellulose) (HPC) 100 % of control | [1] 90 % of control | [2] 96 % of control | dose: 200.0 mg/kg/injection, schedule: Q01DX001 (ip), vehicle: Klucel (hydroxypropylcellulose) (HPC) 94 % of control | [3] 93 % of control | [4] 96 % of control | dose: 400.0 mg/kg/injection, schedule: Q01DX001 (ip), vehicle: Klucel (hydroxypropylcellulose) (HPC) 92 % of control | [6] 95 % of control

COc1cc2c3c(c4ccc(O)cc4c2cc1OC)[C@@H](O)[C@@H]1CCCN1C3
active: dose: 12.0 mg/kg/injection, schedule: Q01DX Z (ip), vehicle: water 151 % of control
inactive: dose: 2.5 mg/kg/injection, schedule: Q01DX005 (ip), vehicle: water 106 % of control | dose: 2.5 mg/kg/injection, schedule: Q01DX009 (ip), vehicle: water 95 % of control | dose: 2.5 mg/kg/injection, schedule: Q01DX015 (ip), vehicle: water 105 % of control | dose: 5.0 mg/kg/injection, schedule: Q01DX001 (ip), vehicle: water 98 % of control | dose: 5.0 mg/kg/injection, schedule: Q01DX005 (ip), vehicle: water 104 % of control | dose: 5.0 mg/kg/injection, schedule: Q01DX009 (ip), vehicle: water 119 % of control | dose: 5.0 mg/kg/injection, schedule: Q01DX009 (sc), vehicle: water 109 % of control | dose: 5.0 mg/kg/injection, schedule: Q01DX015 (ip), vehicle: water 120 % of control | dose: 5.0 mg/kg/injection, schedule: Q02DX005 (ip), vehicle: water 114 % of control | dose: 5.0 mg/kg/injection, schedule: Q## X003 (ip), vehicle: water 111 % of control | dose: 6.0 mg/kg/injection, schedule: Q01DX Z (ip), vehicle: water 124 % of control | dose: 6.7 mg/kg/injection, schedule: Q01DX015 (ip), vehicle: water 112 % of control | dose: 7.1 mg/kg/injection, schedule: Q01DX015 (ip), vehicle: water 112 % of control | dose: 10.0 mg/kg/injection, schedule: Q01DX001 (ip), vehicle: water 108 % of control | dose: 10.0 mg/kg/injection, schedule: Q01DX005 (ip), vehicle: water 109 % of control | dose: 10.0 mg/kg/injection, schedule: Q01DX009 (ip), vehicle: water 119 % of control | dose: 10.0 mg/kg/injection, schedule: Q01DX009 (oral), vehicle: water 114 % of control | dose: 10.0 mg/kg/injection, schedule: Q01DX009 (sc), vehicle: water 122 % of control | dose: 10.0 mg/kg/injection, schedule: Q01DX015 (ip), vehicle: water 112 % of control | dose: 10.0 mg/kg/injection, schedule: Q## X003 (ip), vehicle: water 101 % of control | dose: 15.0 mg/kg/injection, schedule: Q01DX005 (ip), vehicle: water 117 % of control | dose: 15.0 mg/kg/injection, schedule: Q01DX009 (ip), vehicle: water 120 % of control | dose: 15.0 mg/kg/injection, schedule: Q01DX009 (sc), vehicle: water 119 % of control | dose: 15.0 mg/kg/injection, schedule: Q01DX015 (ip), vehicle: water 109 % of control | dose: 15.0 mg/kg/injection, schedule: Q02DX005 (ip), vehicle: water 124 % of control | dose: 15.0 mg/kg/injection, schedule: Q## X003 (ip), vehicle: water 119 % of control | dose: 20.0 mg/kg/injection, schedule: Q01DX001 (ip), vehicle: water 104 % of control | dose: 20.0 mg/kg/injection, schedule: Q01DX009 (ip), vehicle: water 114 % of control | dose: 20.0 mg/kg/injection, schedule: Q01DX009 (oral), vehicle: water 109 % of control | dose: 20.0 mg/kg/injection, schedule: Q01DX009 (sc), vehicle: water 88 % of control | dose: 20.0 mg/kg/injection, schedule: Q01DX Z (ip), vehicle: water 110 % of control | dose: 20.0 mg/kg/injection, schedule: Q## X003 (ip), vehicle: water 117 % of control | dose: 22.5 mg/kg/injection, schedule: Q01DX015 (ip), vehicle: water 123 % of control | dose: 25.0 mg/kg/injection, schedule: Q01DX015 (ip), vehicle: water 96 % of control | dose: 30.0 mg/kg/injection, schedule: Q01DX009 (oral), vehicle: water 100 % of control | dose: 40.0 mg/kg/injection, schedule: Q01DX001 (ip), vehicle: water 114 % of control

O=C(O)C(SCc1ccccc1)c1ccccc1 (centres undefined)
inactive: [10] 91 % of control | [7] 95 % of control | dose: 200.0 mg/kg/injection, schedule: Q01DX001 (ip), vehicle: saline 98 % of control | [8] 95 % of control | dose: 400.0 mg/kg/injection, schedule: Q01DX001 (ip), vehicle: saline 92 % of control | [9] 101 % of control

CCCCSC(C)(SCCCC)SCCCC
inactive: dose: 100.0 mg/kg/injection, schedule: Q04DX002 (ip), vehicle: saline with Tween-80 97 % of control | dose: 200.0 mg/kg/injection, schedule: Q04DX002 (ip), vehicle: saline with Tween-80 101 % of control | dose: 400.0 mg/kg/injection, schedule: Q04DX002 (ip), vehicle: saline with Tween-80 116 % of control
